According to US20250361241A1, “HPK1 INHIBITOR AND MEDICAL USE THEREOF” (Betta Pharmaceuticals Co., Ltd., priority 2022, published 2025):

Each compound was assayed against HPK1 (Homo sapiens (Human), UniProt Q92918) (assay: HPK1 enzyme activity detection (1 mM ATP system), ADP-Glo with MBP substrate, Pharmacological Experiment 2).
Type: biochemical
Protocol: (§1) Pharmacological Experiment 2: […] The test compound was serially diluted using DMSO to 200 times the detection concentration. […] Centrifuge at 1000×g for 30 seconds and incubate at 25° C. for 15 minutes. • (5) Adding ATP and substrate: Add 2 μL of 2×ATP-MBP solution to the 384-well plate and centrifuge at 1000×g for 30 seconds. Seal the plate with a sealing film and incubate at 25° C. for 60 minutes. • (6) Add ADP-Glo reagent: Add 4 μL ADP-Glo reagent (Promega, V9103) to the 384-well plate, centrifuge at 1000×g for 30 seconds, and incubate at 25° C. for 60 minutes. • (7) Detection of luminescent signal; Add 8 μL of luminescent detection reagent (Promega, V9103) to a 384-well plate, centrifuge at 1000×g for 30 seconds, and incubate at 25° C. for 60 minutes. The chemiluminescent signal was read using a BMG instrument. • (8) Calculation of percentage inhibition rate: […] See Table 2 for the enzymatic IC 50 data of the example compounds on HPK1.

Sequence of HPK1 (Q92918 whole entry, species assumed): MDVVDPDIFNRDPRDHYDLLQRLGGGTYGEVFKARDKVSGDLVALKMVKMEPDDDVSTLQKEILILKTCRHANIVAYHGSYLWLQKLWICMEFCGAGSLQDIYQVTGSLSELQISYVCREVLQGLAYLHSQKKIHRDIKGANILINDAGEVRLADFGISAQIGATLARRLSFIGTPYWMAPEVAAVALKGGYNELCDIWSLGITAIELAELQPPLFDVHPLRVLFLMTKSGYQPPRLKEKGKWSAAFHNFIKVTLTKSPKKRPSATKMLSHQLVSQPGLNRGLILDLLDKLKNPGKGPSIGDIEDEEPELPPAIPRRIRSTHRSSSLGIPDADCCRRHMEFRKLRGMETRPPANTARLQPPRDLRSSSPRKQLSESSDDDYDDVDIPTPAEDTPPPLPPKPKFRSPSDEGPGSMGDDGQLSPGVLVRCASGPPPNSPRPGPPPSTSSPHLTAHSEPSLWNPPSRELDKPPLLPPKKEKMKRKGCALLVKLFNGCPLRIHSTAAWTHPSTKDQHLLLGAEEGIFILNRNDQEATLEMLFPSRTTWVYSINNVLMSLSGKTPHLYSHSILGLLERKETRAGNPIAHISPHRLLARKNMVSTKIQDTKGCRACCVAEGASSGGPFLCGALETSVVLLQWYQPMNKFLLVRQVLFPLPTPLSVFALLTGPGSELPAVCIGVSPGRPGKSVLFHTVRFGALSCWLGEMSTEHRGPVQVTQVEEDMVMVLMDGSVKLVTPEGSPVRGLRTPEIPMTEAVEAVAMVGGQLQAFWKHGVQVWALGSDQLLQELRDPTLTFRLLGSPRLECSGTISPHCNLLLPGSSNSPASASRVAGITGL

Row | Compound | IC50 [nM]
1 | CN(C)C1CCC2(CCOCC2)c2ccc(Nc3ccc(-c4cnn5cccnc45)c4c3C(=O)NC4)nc21 (centres unmarked) [Compound 45] | 3.08
2 | O=C1NCc2c(-c3cnc4cc(F)ccn34)ccc(Nc3ccc4c(n3)C(N3CCC(F)CC3)CC43CCOCC3)c21 (centres unmarked) [Compound 144] | 7.42
3 | CN(C)Cc1nc(Nc2ccc(-c3cnc4cc(F)ccn34)c3c2C(=O)NC3)cc2c1C1(CCOCC1)NC2 [Compound 55] | 7.56
4 | CC(C)NC1CC2(CCOCC2)c2ccc(Nc3ccc(-c4cnc5cc(Cl)ccn45)c4c3C(=O)NC4)nc21 (centres unmarked) [Compound 142] | 4.52
5 | CN(C)C1CC2(CCOCC2)c2ccc(Nc3ccc(-c4cnc5cc(F)c(Cl)cn45)c4c3C(=O)NC4)nc21 (centres unmarked) [Compound 46, 4-(6-CHLORO-7-FLUOROIMIDAZO[1,2-A]PYRIDIN-3-YL)-7-((7-(DIMETHYLAMINO)-2′,3′,5′,6,6′,7-HEXAHYDRO SPIRO[B]PYRIDIN-5,4′-PYRAN]-2-YL)AMINO)ISOINDOLIN-1-ONE] | 11.8
6 | CN(C)C1CC2(CCOCC2)c2ccc(Nc3ccc(-c4cnc5n4CCCC5)c4c3C(=O)NC4)nc21 (centres unmarked) [Compound 166, 7-((7-(DIMETHYLAMINO)-2′,3′,5′,6,6′,7-HEXAHYDROSPIRO[CYCLOPENTANE[B]PYRIDINE-5,4′-PYRAN]-2-YL)AMINO)-4-(5,6,7,8-TETRAHYDROIMIDAZO[1,2-A]PYRIDIN-3-YL)ISOINDOL-1-ONE] | 25.7
7 | O=C1NCc2c(-c3cnc4cc(F)ccn34)ccc(Nc3ccc4c(n3)C(N3CCCCC3)CC43CCOCC3)c21 (centres unmarked) [Compound 90] | 5.58
8 | CN(C)C1COC2(CCOCC2)c2ccc(Nc3ccc(-c4cnc5cc(Cl)ccn45)c4c3C(=O)NC4)nc21 (centres unmarked) [Compound 86] | 2.61
9 | CN(C)C1CC2(CCOCC2)c2ccc(Nc3ccc(-c4cnc5cc(O)ccn45)c4c3C(=O)NC4)nc21 (centres unmarked) [Compound 171] | 35
10 | CN(C)C1CC2(CCOCC2)c2ccc(Nc3ccc(-c4cnc5ccc(F)cn45)c4c3C(=O)NC4)nc21 (centres unmarked) [Compound 162] | 18.6
11 | CC(C)CNC1CC2(CCOCC2)c2ccc(Nc3ccc(-c4cnc5cc(F)ccn45)c4c3C(=O)NC4)nc21 (centres unmarked) [Compound 141] | 3.07
12 | 7-((2,3,5,6,7′,8′-HEXAHYDRO-6′-H-PYRANO[4,5′-[1,7]NAPHTHYRIDINE]-2′-YL)AMINO)-4-(7-(TRIFLUOROMETHYL)IMIDAZO[1,2-A]PYRIDIN-3-YL)ISOINDOL-1-ONE [Compound 147] | 22
13 | COc1ccn2c(-c3ccc(Nc4ccc5c(n4)C(N(C)C)CC54CCOCC4)c4c3CNC4=O)cnc2c1 (centres unmarked) [Compound 170] | 6.88
14 | C[C@H]1CN(C2CC3(CCOCC3)c3ccc(Nc4ccc(-c5cnc6cc(F)ccn56)c5c4C(=O)NC5)nc32)CCO1 (some centres unmarked) [Compound 97] | 7.5
15 | Cc1cc(Nc2ccc(-c3cnc4cc(F)ccn34)c3c2C(=O)NC3)nc2c1C1(CCOCC1)C[C@H]2N(C)C [Compound 28, (R)-7-((7-(DIMETHYLAMINO)-4-METHYL-2′,3′,5′,6,6′,7-HEXAHYDROSPIRO[B]PYRIDIN-5,4′-PYRAN]-2-YL)AMINO)-4-(7-FLUOROIMIDAZO[1,2-A]PYRIDIN-3-YL)ISOINDOLIN-1-ONE] | 1.27
16 | C#CCN1Cc2nc(Nc3ccc(-c4cnc5cc(F)ccn45)c4c3C(=O)NC4)ccc2C2(CCOCC2)C1 [Compound 156] | 38.7
17 | C#CCN1Cc2nc(Nc3ccc(-c4cnc5cc(F)ccn45)c4c3C(=O)NC4)ccc2C2(CCOCC2)C1 [Compound 155] | 243
18 | CN(C)C1CC2(CCOCC2)c2ccc(Nc3ccc(-c4cnc5cc(OC(F)(F)F)ccn45)c4c3C(=O)NC4)nc21 (centres unmarked) [Compound 175] | 16.8
19 | COc1ccn2c(-c3ccc(Nc4ccc5c(n4)CCCC54CCOCC4)c4c3CNC4=O)cnc2c1 [Compound 148] | 21.8
20 | O=C1NCc2c(-c3cnc4cc(F)c(Cl)cn34)ccc(Nc3ccc4c(n3)CCCC43CCOCC3)c21 [Compound 150] | 30.4
21 | CN1Cc2nc(Nc3ccc(-c4cnc5cc(F)ccn45)c4c3C(=O)NC4)ccc2C2(CCOCC2)C1 [Compound 100, 4-(7-FLUOROIMIDAZO[1,2-A]PYRIDIN-3-YL)-7-((7′-(METHYL-D3)-2,3,5,6,7′,8′-HEXAHYDRO-6′H-SPIRO[PYRAN-4,5′-[1,7]NAPHTHYRIDINE]-2′-YL)AMINO)ISOINDOL-1-ONE] | 3.1

Row | Compound | IC50 [nM]
22 | O=C1NCc2c(-c3cnc4cc(F)ccn34)ccc(Nc3ccc4c(n3)C(N3C[C@H]5C[C@@H]3CO5)CC43CCOCC3)c21 (some centres unmarked) [Compound 143] | 3.51
23 | 4-(8-FLUORO-7-METHYLIMIDAZO[1,2-A]PYRIDIN-3-YL)-7-((2,3,5,6,7′,8′-HEXAHYDRO-6′H-SPIRO[PYRAN-4, 5′-[1,7]NAPHTHYRIDINE]-2′-YL)AMINO)ISOINDOL-1-ONE [Compound 149] | 4.42
24 | CN(C)C1CCC2(CCOCC2)c2ccc(Nc3ccc(-c4cnc5cc(Cl)ccn45)c4c3C(=O)NC4)nc21 (centres unmarked) [Compound 31] | 4.53
25 | O=C1NCc2c(-c3cnc4cc(F)ccn34)ccc(Nc3ccc4c(n3)C(NCC(F)(F)F)CC43CCOCC3)c21 (centres unmarked) [Compound 118] | 71.1
26 | C[C@@H]1CN(C2CC3(CCOCC3)c3ccc(Nc4ccc(-c5cnc6cc(F)ccn56)c5c4C(=O)NC5)nc32)C[C@@H](C)O1 (some centres unmarked) [Compound 112] | 48.7
27 | O=C1NCc2c(-c3cnc4cc(F)ccn34)ccc(Nc3ccc4c(n3)C(N3CCNCC3)CC43CCOCC3)c21 (centres unmarked) [Compound 99] | 171
28 | C[C@@H]1CN(C2CC3(CCOCC3)c3ccc(Nc4ccc(-c5cnc6cc(F)ccn56)c5c4C(=O)NC5)nc32)C[C@H](C)O1 (some centres unmarked) [Compound 113] | 6.21
29 | CC(=O)N1Cc2nc(Nc3ccc(-c4cnc5cc(F)ccn45)c4c3C(=O)NC4)ccc2C2(CCCCC2)C1 [Compound 145] | 38.1
30 | O=C1NCc2c(-c3cnc4cc(F)ccn34)ccc(Nc3ccc4c(n3)C(N3CCOC5(CC5)C3)CC43CCOCC3)c21 (centres unmarked) [Compound 111] | 30.2
31 | O=C1N=Cc2c(-c3cnc4cc(Cl)ccn34)ccc(Nc3ccc4c(n3)CNCC43CC3)c21 [Compound 152, 4-(7-CHLOROIMIDAZO[1,2-A]PYRIDIN-3-YL)-7-((7′,8′-DIHYDRO-6′H-SPIRO[CYCLOPROPANE-1,5′-[1,7]NAPHTHYRIDINE]-2′-YL)AMINO)ISOINDOL-1-ONE] | 14.4
32 | CC(C)c1ccn2c(-c3ccc(Nc4ccc5c(n4)C(N(C)C)CC54CCOCC4)c4c3CNC4=O)cnc2c1 (centres unmarked) [Compound 163, 7-((7-(DIMETHYLAMINO)-2′,3′,5′,6,6′,7-HEXAHYDROSPIRO[CYCLOPENTANE[B]PYRIDINE-5,4′-PYRAN]-2-YL)AMINO)-4-(7-ISOPROPYLIMIDAZO[1,2-A]PYRIDIN-3-YL)ISOINDOL-1-ONE] | 25.3
33 | CN(C)C1CC2(CCOCC2)c2ccc(Nc3ccc(-c4cnc5c(F)cccn45)c4c3C(=O)NC4)nc21 (centres unmarked) [Compound 159] | 5.41
34 | O=C1NCc2c(-c3cnc4cc(F)ccn34)ccc(Nc3ccc4c(n3)C(N3CCC(F)(F)C3)CC43CCOCC3)c21 (centres unmarked) [Compound 72, 7-((7-(3,3-DIFLUOROPYRROLIDIN-1-YL)-2′,3′,5′6,6′,7-HEXAHYDROSPIRO[B]PYRIDINE-5,4′-PYRAN]-2-YL)AMINO)-4-(7-FLUOROIMIDAZOLE[1,2-A]PYRIDIN-3-YL)ISOINDOL-1-ONE] | 143
35 | CC1(O)CCN(C2CC3(CCOCC3)c3ccc(Nc4ccc(-c5cnc6cc(F)ccn56)c5c4C(=O)NC5)nc32)CC1 (centres unmarked) [Compound 95] | 6.36
36 | O=C1NCc2c(-c3cnc4cc(OC(F)F)ccn34)ccc(Nc3ccc4c(n3)C(N3CCOCC3)CC43CCOCC3)c21 (centres unmarked) [Compound 177, 4-(7-(DIFLUOROMETHOXY)IMIDAZO[1,2-A]PYRIDIN-3-YL)-7-((7-MORPHOLINE-2′,3′,5′,6,6′,7-HEXAHVDROSPIRO[B]PYRIDIN-54′-PYRAN]-2-YL)AMINO)ISOINDOL-1-ONE] | 102
37 | CC1(C)CN(C2CC3(CCOCC3)c3ccc(Nc4ccc(-c5cnc6cc(F)ccn56)c5c4C(=O)NC5)nc32)CCO1 (centres unmarked) [Compound 96] | 72.5
38 | O=C1NCc2c(-c3cnc4cc(OC(F)F)ccn34)ccc(Nc3ccc4c(n3)C(N3CCC(F)CC3)CC43CCOCC3)c21 (centres unmarked) [Compound 176] | 12.1
39 | CC(=O)N1CCN(C2CC3(CCOCC3)c3ccc(Nc4ccc(-c5cnc6cc(F)ccn56)c5c4C(=O)NC5)nc32)CC1 (centres unmarked) [Compound 92] | 75.2
40 | O=C1NCc2c(-c3cnc4cc(F)ccn34)ccc(Nc3ccc4c(n3)C(N3CC5CCC(C3)O5)CC43CCOCC3)c21 (centres unmarked) [Compound 116] | 79.8
41 | Cc1cc(Nc2cnc(-c3ccnc4c3ccn4C)c3c2C(=O)NC3)nc2c1C1(CCOCC1)CC2N(C)C (centres unmarked) [Compound 30] | 4.22
42 | CN(CC(F)F)C1CC2(CCOCC2)c2ccc(Nc3ccc(-c4cnc5cc(F)ccn45)c4c3C(=O)NC4)nc21 (centres unmarked) [Compound 114] | 92.5

The compounds below were run against GLK (Homo sapiens (Human), UniProt Q8IVH8) (assay: GLK kinase assay (1 mM ATP system), ADP-Glo).
Type: biochemical
Protocol: as §1, with “Solution” for “Pharmacological Experiment 2:”, “Add” for “Adding”, “signal:” for “signal;”, “microplate reader.” for “instrument.”, “GLK kinase IC50” for “enzymatic IC 50”

Sequence of GLK (Q8IVH8 whole entry, species assumed): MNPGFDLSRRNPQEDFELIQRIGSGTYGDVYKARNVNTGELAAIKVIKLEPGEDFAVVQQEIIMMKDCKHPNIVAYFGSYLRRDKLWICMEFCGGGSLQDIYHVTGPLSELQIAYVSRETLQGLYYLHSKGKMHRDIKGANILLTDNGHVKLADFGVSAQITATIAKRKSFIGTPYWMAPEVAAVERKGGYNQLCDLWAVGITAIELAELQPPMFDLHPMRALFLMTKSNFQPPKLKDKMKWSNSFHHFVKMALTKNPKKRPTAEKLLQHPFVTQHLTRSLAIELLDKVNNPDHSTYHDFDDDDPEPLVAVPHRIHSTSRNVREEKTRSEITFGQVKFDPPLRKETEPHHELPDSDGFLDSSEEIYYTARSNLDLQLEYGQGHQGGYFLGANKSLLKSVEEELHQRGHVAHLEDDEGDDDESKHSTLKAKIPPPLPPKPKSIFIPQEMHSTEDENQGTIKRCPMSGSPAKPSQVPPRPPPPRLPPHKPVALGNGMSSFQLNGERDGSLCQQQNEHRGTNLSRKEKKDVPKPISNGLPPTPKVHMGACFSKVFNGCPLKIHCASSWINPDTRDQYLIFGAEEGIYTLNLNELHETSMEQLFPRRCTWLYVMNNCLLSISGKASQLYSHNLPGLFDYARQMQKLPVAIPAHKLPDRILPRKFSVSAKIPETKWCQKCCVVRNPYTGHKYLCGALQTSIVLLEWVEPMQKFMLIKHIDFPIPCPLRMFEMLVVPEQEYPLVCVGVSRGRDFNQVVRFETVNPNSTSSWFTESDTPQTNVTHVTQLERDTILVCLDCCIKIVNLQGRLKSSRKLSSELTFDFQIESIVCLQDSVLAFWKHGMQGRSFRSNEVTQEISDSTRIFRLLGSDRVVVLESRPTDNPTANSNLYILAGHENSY

Row | Compound | IC50 [nM]
43 | O=C1NCc2c(-c3cnc4cc(F)ccn34)ccc(Nc3ccc4c(n3)C(N3CCC(F)CC3)CC43CCOCC3)c21 (centres unmarked) [Compound 144] | > 3000
44 | CN(C)Cc1nc(Nc2ccc(-c3cnc4cc(F)ccn34)c3c2C(=O)NC3)cc2c1C1(CCOCC1)NC2 [Compound 55] | 2150
45 | CN(C)C1CC2(CCOCC2)c2ccc(Nc3ccc(-c4cnc5cc(F)c(Cl)cn45)c4c3C(=O)NC4)nc21 (centres unmarked) [Compound 46, 4-(6-CHLORO-7-FLUOROIMIDAZO[1,2-A]PYRIDIN-3-YL)-7-((7-(DIMETHYLAMINO)-2′,3′,5′,6,6′,7-HEXAHYDRO SPIRO[B]PYRIDIN-5,4′-PYRAN]-2-YL)AMINO)ISOINDOLIN-1-ONE] | 971
46 | O=C1NCc2c(-c3cnc4cc(F)ccn34)ccc(Nc3ccc4c(n3)C(N3CCCCC3)CC43CCOCC3)c21 (centres unmarked) [Compound 90] | 598
47 | CN(C)C1COC2(CCOCC2)c2ccc(Nc3ccc(-c4cnc5cc(Cl)ccn45)c4c3C(=O)NC4)nc21 (centres unmarked) [Compound 86] | 158
